Source: ChEMBL document CHEMBL3885881, “DrugMatrix”

Organism: Rattus norvegicus
Test: DrugMatrix - Regimen: Daily Repeat
Assay type: toxicity, organism-based, Sprague-Dawley
Parameters: regimen Daily Repeat, gender Male, age 6-8 weeks
Settings: in vivo, po, 10 mg/kg, route oral GAVAGE, dose level Low, […]; for ABSOLUTE BASOPHIL / ABSOLUTE EOSINOPHIL / ABSOLUTE LYMPHOCYTE / ABSOLUTE MONOCYTE / ABSOLUTE SEGMENTED NEUTROPHIL / BASOPHIL / EOSINOPHIL / ERYTHROCYTE COUNT / HEMATOCRIT / HEMOGLOBIN / LEUKOCYTE COUNT / LYMPHOCYTE / MEAN CORPUSCULAR HEMOGLOBIN / MEAN CORPUSCULAR HEMOGLOBIN CONCENTRATION / MEAN CORPUSCULAR VOLUME / MONOCYTE / NEUTROPHIL / NUCLEATED RED BLOOD CELLS / PLATELET COUNT: tissue Blood; for ALANINE AMINOTRANSFERASE / ALBUMIN / ALKALINE PHOSPHATASE / ASPARTATE AMINOTRANSFERASE / BLOOD UREA NITROGEN / CARBON DIOXIDE / CHLORIDE / CHOLESTEROL / CREATINE PHOSPHOKINASE / CREATININE / GLUCOSE / LACTATE DEHYDROGENASE / LIPASE / PHOSPHORUS / POTASSIUM / SODIUM / TOTAL BILIRUBIN / TOTAL PROTEIN / URIC ACID: tissue Plasma

Q: For `Sc1ncnc2nc[nH]c12` [MERCAPTOPURINE ANHYDROUS], which “ABSOLUTE BASOPHIL” value (72 h, time 3 day) is on record?
A: 0 CELLS/uL

Q: What about the “ABSOLUTE EOSINOPHIL” value (72 h, time 3 day) of the same compound?
A: 96.67 CELLS/uL

Q: And the “ABSOLUTE LYMPHOCYTE” value (72 h, time 3 day)?
A: 10655 CELLS/uL

Q: What about the “ABSOLUTE MONOCYTE” value (72 h, time 3 day) of the same compound?
A: 48.33 CELLS/uL

Q: And the “ABSOLUTE SEGMENTED NEUTROPHIL” value (72 h, time 3 day)?
A: 1066.67 CELLS/uL

Q: And the BASOPHIL (72 h, time 3 day)?
A: 0%

Q: What about the EOSINOPHIL (72 h, time 3 day) of the same compound?
A: 0.67%

Q: And the “ERYTHROCYTE COUNT” value (72 h, time 3 day)?
A: 5.09 x10E6/uL

Q: What about the HEMATOCRIT (72 h, time 3 day) of the same compound?
A: 31.73%

Q: What about the HEMOGLOBIN (72 h, time 3 day) of the same compound?
A: 12.87 G/DL

Q: And the “LEUKOCYTE COUNT” value (72 h, time 3 day)?
A: 11.87 x10E3/uL

Q: What about the LYMPHOCYTE (72 h, time 3 day) of the same compound?
A: 90.33%

Q: And the “MEAN CORPUSCULAR HEMOGLOBIN” value (72 h, time 3 day)?
A: 25.3 pg

Q: What about the “MEAN CORPUSCULAR HEMOGLOBIN CONCENTRATION” value (72 h, time 3 day) of the same compound?
A: 40.6 G/DL

Q: What about the “MEAN CORPUSCULAR VOLUME” value (72 h, time 3 day) of the same compound?
A: 62.4 fL

Q: What about the MONOCYTE (72 h, time 3 day) of the same compound?
A: 0.33%

Q: What about the NEUTROPHIL (72 h, time 3 day) of the same compound?
A: 8.67%

Q: What about the “NUCLEATED RED BLOOD CELLS” value (72 h, time 3 day) of the same compound?
A: 0 /100WBC

Q: And the “PLATELET COUNT” value (72 h, time 3 day)?
A: 1148.67 x10E3/uL

Q: And the “ALANINE AMINOTRANSFERASE” value (72 h, time 3 day)?
A: 66.33 u/L

Q: What about the ALBUMIN (72 h, time 3 day) of the same compound?
A: 3.9 G/DL

Q: What about the “ALKALINE PHOSPHATASE” value (72 h, time 3 day) of the same compound?
A: 364.67 u/L

Q: And the “ASPARTATE AMINOTRANSFERASE” value (72 h, time 3 day)?
A: 83 u/L

Q: And the “BLOOD UREA NITROGEN” value (72 h, time 3 day)?
A: 13 mg/dL

Q: What about the “CARBON DIOXIDE” value (72 h, time 3 day) of the same compound?
A: 30.33 mmol/L

Q: What about the CHLORIDE (72 h, time 3 day) of the same compound?
A: 99 MEQ/L

Q: What about the CHOLESTEROL (72 h, time 3 day) of the same compound?
A: 73.67 mg/dL

Q: What about the “CREATINE PHOSPHOKINASE” value (72 h, time 3 day) of the same compound?
A: 175.33 u/L

Q: What about the CREATININE (72 h, time 3 day) of the same compound?
A: 0.15 mg/dL

Q: What about the GLUCOSE (72 h, time 3 day) of the same compound?
A: 164.33 mg/dL

Q: And the “LACTATE DEHYDROGENASE” value (72 h, time 3 day)?
A: 112.33 u/L

Q: And the LIPASE (72 h, time 3 day)?
A: 11.33 u/L

Q: What about the PHOSPHORUS (72 h, time 3 day) of the same compound?
A: 11.03 mg/dL

Q: And the POTASSIUM (72 h, time 3 day)?
A: 6.32 MEQ/L

Q: What about the SODIUM (72 h, time 3 day) of the same compound?
A: 142.6 MEQ/L

Q: What about the “TOTAL BILIRUBIN” value (72 h, time 3 day) of the same compound?
A: 0.2 mg/dL

Q: What about the “TOTAL PROTEIN” value (72 h, time 3 day) of the same compound?
A: 5.6 G/DL

Q: And the “URIC ACID” value (72 h, time 3 day)?
A: 1.4 mg/dL

Q: What about the “ABSOLUTE BASOPHIL” value (120 h, time 5 day) of the same compound?
A: 0 CELLS/uL

Q: And the “ABSOLUTE EOSINOPHIL” value (120 h, time 5 day)?
A: 128 CELLS/uL

Q: And the “ABSOLUTE LYMPHOCYTE” value (120 h, time 5 day)?
A: 12203 CELLS/uL

Q: And the “ABSOLUTE MONOCYTE” value (120 h, time 5 day)?
A: 203 CELLS/uL

Q: What about the “ABSOLUTE SEGMENTED NEUTROPHIL” value (120 h, time 5 day) of the same compound?
A: 1366 CELLS/uL

Q: And the BASOPHIL (120 h, time 5 day)?
A: 0%

Q: What about the EOSINOPHIL (120 h, time 5 day) of the same compound?
A: 0.67%

Q: What about the “ERYTHROCYTE COUNT” value (120 h, time 5 day) of the same compound?
A: 5.76 x10E6/uL

Q: What about the HEMATOCRIT (120 h, time 5 day) of the same compound?
A: 36.7%

Q: What about the HEMOGLOBIN (120 h, time 5 day) of the same compound?
A: 14.3 G/DL

Q: What about the “LEUKOCYTE COUNT” value (120 h, time 5 day) of the same compound?
A: 13.9 x10E3/uL

Q: And the LYMPHOCYTE (120 h, time 5 day)?
A: 88.67%

Q: What about the “MEAN CORPUSCULAR HEMOGLOBIN” value (120 h, time 5 day) of the same compound?
A: 24.83 pg

Q: What about the “MEAN CORPUSCULAR HEMOGLOBIN CONCENTRATION” value (120 h, time 5 day) of the same compound?
A: 38.97 G/DL

Q: What about the “MEAN CORPUSCULAR VOLUME” value (120 h, time 5 day) of the same compound?
A: 63.73 fL

Q: And the MONOCYTE (120 h, time 5 day)?
A: 1.33%

Q: And the NEUTROPHIL (120 h, time 5 day)?
A: 9.33%

Q: And the “NUCLEATED RED BLOOD CELLS” value (120 h, time 5 day)?
A: 0 /100WBC

Q: What about the “PLATELET COUNT” value (120 h, time 5 day) of the same compound?
A: 1127 x10E3/uL

Q: And the “ALANINE AMINOTRANSFERASE” value (120 h, time 5 day)?
A: 61 u/L

Q: And the ALBUMIN (120 h, time 5 day)?
A: 4.33 G/DL

Q: And the “ALKALINE PHOSPHATASE” value (120 h, time 5 day)?
A: 384.33 u/L

Q: And the “ASPARTATE AMINOTRANSFERASE” value (120 h, time 5 day)?
A: 75 u/L

Q: What about the “BLOOD UREA NITROGEN” value (120 h, time 5 day) of the same compound?
A: 15 mg/dL

Q: And the “CARBON DIOXIDE” value (120 h, time 5 day)?
A: 29.33 mmol/L

Q: And the CHLORIDE (120 h, time 5 day)?
A: 100.33 MEQ/L

Q: And the CHOLESTEROL (120 h, time 5 day)?
A: 73.67 mg/dL

Q: And the “CREATINE PHOSPHOKINASE” value (120 h, time 5 day)?
A: 274.33 u/L

Q: What about the CREATININE (120 h, time 5 day) of the same compound?
A: 0.22 mg/dL

Q: What about the GLUCOSE (120 h, time 5 day) of the same compound?
A: 153.67 mg/dL

Q: And the “LACTATE DEHYDROGENASE” value (120 h, time 5 day)?
A: 111 u/L

Q: And the LIPASE (120 h, time 5 day)?
A: 12.67 u/L

Q: And the PHOSPHORUS (120 h, time 5 day)?
A: 10.1 mg/dL

Q: And the POTASSIUM (120 h, time 5 day)?
A: 6.41 MEQ/L

Q: What about the SODIUM (120 h, time 5 day) of the same compound?
A: 142.27 MEQ/L

Q: What about the “TOTAL BILIRUBIN” value (120 h, time 5 day) of the same compound?
A: 0.17 mg/dL

Q: And the “TOTAL PROTEIN” value (120 h, time 5 day)?
A: 5.97 G/DL

Q: What about the “URIC ACID” value (120 h, time 5 day) of the same compound?
A: 1.13 mg/dL
